Source: BindingDB's records for doi:10.7270/Q2319T8T (The Scripps Research Institute Molecular Screening Center, 2007)

Molecular target: Steroidogenic factor 1 (Homo sapiens, UniProt Q13285)
Assay: blockers of SF-1 LBD reporter transcription – cell-based, CHO-K1, Gal4-SF-1 LBD, luciferase luminescence, dose response (AID 600)
[1] = inactive by the depositor's call

Sequence of Steroidogenic factor 1 (Q13285 whole entry, the tested form may be a part): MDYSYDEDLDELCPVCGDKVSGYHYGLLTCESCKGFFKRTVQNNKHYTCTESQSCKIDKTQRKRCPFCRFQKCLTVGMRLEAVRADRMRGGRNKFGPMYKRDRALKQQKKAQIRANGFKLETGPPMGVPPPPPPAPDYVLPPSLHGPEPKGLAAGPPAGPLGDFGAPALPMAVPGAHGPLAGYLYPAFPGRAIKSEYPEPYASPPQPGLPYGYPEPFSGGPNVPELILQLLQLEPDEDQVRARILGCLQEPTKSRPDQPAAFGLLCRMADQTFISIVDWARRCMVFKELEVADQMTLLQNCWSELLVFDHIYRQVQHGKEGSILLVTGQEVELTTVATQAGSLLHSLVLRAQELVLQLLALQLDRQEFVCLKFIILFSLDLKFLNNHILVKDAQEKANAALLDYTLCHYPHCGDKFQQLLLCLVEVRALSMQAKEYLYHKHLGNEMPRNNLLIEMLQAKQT

Compound	IC50	IC50 [1]
C[C@H]1CCCC=CC2C[C@H](O)CC2[C@H](O)C=CC(=O)O1 (stereo partly drawn) [(7S,12R,15S)-12,15-dihydroxy-7-methyl-8-oxabicyclo[11.3.0]hexadeca-2,10-dien-9-one]	5.61 µM	–
Fc1ccc2[nH]c3c(N4CCSCC4)ncnc3c2c1 [MLS000078401]	–	11.8 µM
CCN(CC)c1ccc(-c2nn3c(-c4ccccc4OC)nnc3s2)cc1	5.03 µM	–
CCOC(=O)c1c(C)[nH]c(C(=O)C(C)OC(=O)c2cccc(OCc3c(C)noc3C)c2)c1C (stereo unspecified) [MLS000054923]	8.24 µM	–
COc1ccccc1-c1nnc2n1N=C(c1ccc(O)c(O)c1)CS2 [(4E)-4-[3-(2-methoxyphenyl)-5H-[1,2,4]triazolo[3,4-b][1,3,4]thiadiazin-6-ylidene]-2-oxidanyl-cyclohexa-2,5-dien-1-one]	10.4 µM	–
[H][C@@]12C[N@@](CCc3c([nH]c4ccccc34)[C@@](C(=O)OC)(c3cc4c(cc3OC)N(C=O)[C@]3([H])[C@]45CC[N@@]4CC=C[C@@](CC)([C@@H](OC(C)=O)[C@]3(O)C(=O)OC)[C@]45[H])C1)C[C@](O)(CC)C2	3.56 µM	–
C[S+]([O-])c1nc(-c2ccc(Br)cc2)cc(-c2ccccc2)c1C#N (stereo unspecified) [6-(4-bromophenyl)-2-(methylsulfinyl)-4-phenylnicotinonitrile]	5.24 µM	–
COc1ccc(Cl)c(Cn2c(NCc3ccco3)nc3c2c(=O)n(C)c(=O)n3C)c1 [7-(2-chloro-5-methoxy-benzyl)-8-(2-furfurylamino)-1,3-dimethyl-xanthine]	> 99 µM	–
CC(C)NCC(O)Cn1c2c(c3ccccc31)CCc1c-2cnn1-c1ccccc1 (stereo unspecified) [1-(3-phenyl-4,5-dihydropyrazolo[4,3-a]carbazol-10-yl)-3-(propan-2-ylamino)-2-propanol]	5.85 µM	–
CCCOc1ccc(-c2nnc(-c3ccco3)o2)cc1 [2-(2-furanyl)-5-(4-propoxyphenyl)-1,3,4-oxadiazole]	> 3.67 µM	–
COc1cc(OC)cc(-c2cc3nc(C)c(CCC(=O)O)c(C)n3n2)c1 [3-[2-(3,5-dimethoxyphenyl)-5,7-dimethyl-6-pyrazolo[1,5-a]pyrimidinyl]propanoic acid]	0.625 µM	–
COc1ccc(-n2ncc3c(N(C)C4CCCCC4)ncnc32)cc1 [MLS000100813]	0.292 µM	–
c1ccc2c(c1)CCN(c1ncnc3c1[nH]c1ccccc13)C2 [SMR000039631]	9.03 µM	–
Nc1ccc(-c2nc3c(Cl)cc(N)cc3[nH]2)cc1 [MLS000034140]	5.09 µM	–
COc1ccc(CCNc2c(C)c(C)nc3ncnn23)cc1 [(5,6-Dimethyl-[1,2,4]triazolo[1,5-a]pyrimidin-7-yl)-[2-(4-methoxy-phenyl)-ethyl]-amine]	–	15.1 µM
CC(=O)c1c(C)[nH]c(C(=O)OCCCCN2C(=O)c3ccccc3C2=O)c1C [4-acetyl-3,5-dimethyl-1H-pyrrole-2-carboxylic acid 4-(1,3-dioxo-2-isoindolyl)butyl ester]	2.6 µM	–
COc1cc(C2c3ccc(N)cc3OC(=N)C2C#N)cc(OC)c1OC (stereo unspecified) [2,7-bis(azanyl)-4-(3,4,5-trimethoxyphenyl)-4H-chromene-3-carbonitrile]	7.92 µM	–
CCOC(=O)c1cnc(-n2nc(C)cc2C)nc1NC(C)c1ccccc1 (stereo unspecified) [2-(3,5-dimethyl-1-pyrazolyl)-4-(1-phenylethylamino)-5-pyrimidinecarboxylic acid ethyl ester]	6.88 µM	–

Compound	IC50	IC50 [1]
O=S1(=O)C=C(Sc2nc3cc(Cl)ccc3o2)c2ccccc21 [SMR000019512]	5.11 µM	–
Cc1ccc(C(=O)CC=Nc2ccccn2)cc1 [(E)-1-(4-methylphenyl)-3-(2-pyridinylamino)-2-propen-1-one]	> 11 µM	–
COc1ccc(-c2cc3nc4n(c(=O)c3s2)CCOC4)cc1 [2-(4-methoxyphenyl)-7,8-dihydro-5H-thieno[1,2]pyrimido[4,5-a][1,4]oxazin-10-one]	6.7 µM	–
Cc1cc(-n2c(C)cc(C(=O)CSc3ncnc4ccccc34)c2C)no1 [1-[2,5-dimethyl-1-(5-methyl-1,2-oxazol-3-yl)pyrrol-3-yl]-2-quinazolin-4-ylsulfanyl-ethanone]	9.13 µM	–
O=C(Cc1ccc(Cl)cc1)Nc1ccc(-c2nnc(-c3ccco3)o2)cc1 [2-(4-chlorophenyl)-N-[4-[5-(2-furanyl)-1,3,4-oxadiazol-2-yl]phenyl]acetamide]	9.18 µM	–
COc1ccc(CC(=O)Nc2cccc(-c3nnc(-c4cccc(C)c4)o3)c2)cc1OC [2-(3,4-dimethoxyphenyl)-N-[3-[5-(3-methylphenyl)-1,3,4-oxadiazol-2-yl]phenyl]acetamide]	> 3.67 µM	–
CCc1ccc(-c2cn3nc(C)c(C)nc3n2)cc1 [6-(4-ethylphenyl)-2,3-dimethyl-imidazo[1,2-b][1,2,4]triazine]	3.21 µM	–
Cc1ccc(-c2csc(N3CCC(NS(=O)(=O)c4ccc5c(c4)OCCO5)CC3)n2)cc1 [N-[1-[4-(4-methylphenyl)-1,3-thiazol-2-yl]piperidin-4-yl]-2,3-dihydro-1,4-benzodioxine-6-sulfonamide]	–	11.3 µM
CC[C@]1(O)CC2C[N@](CCc3c([nH]c4ccccc34)[C@@](C(=O)OC)(c3cc4c(cc3OC)N(C)[C@H]3[C@@](O)(C(=O)OC)[C@H](OC(C)=O)[C@]5(CC)C=CCN6CC[C@]43[C@@H]65)C2)C1 [(vinblastine) methyl 12-ethyl-4-[17-ethyl-17-hydroxy-13-methyloxycarbonyl-(13S,15R,17S)-1,11-diazatetracyclo[13.3.1.04,12.05,10]nonadeca-4(12),5,7,9-tetraen-13-yl]-10-hydroxy-5-methoxy-8-methyl-11-methylcarbonyloxy-(10S,11R,12R)-8,16-diazapentac sulfuric acid]	0.986 µM	–
Cc1ccnc(SCC(=O)Nc2sc3c(c2C#N)CCCC3)n1 [MLS000077260]	–	13.4 µM
Oc1c(CN2CCN(c3ccccn3)CC2)cc(Cl)c2cccnc12 [5-chloranyl-7-[(4-pyridin-2-ylpiperazin-1-yl)methyl]quinolin-8-ol]	7.6 µM	–
COc1ccc2[nH]c3nc(SC(C)C)nnc3c2c1 [8-methoxy-3-propan-2-ylsulfanyl-5H-[1,2,4]triazino[5,6-b]indole]	9.03 µM	–
Cc1c2ccncc2c(C)c2c1[nH]c1ccccc12 [5,11-dimethyl-2H-pyrido[4,3-b]carbazole]	> 3.67 µM	–
CCc1nn2cc(-c3ccccc3)nc2s1 [2-ethyl-6-phenyl-imidazo[2,1-b][1,3,4]thiadiazole]	4.41 µM	–
CS(=O)(=O)c1nc(-c2ccccc2)cc(C(F)(F)F)n1 [MLS000044644]	5.09 µM	–
Cn1c(=O)c2c(nc(NCc3ccco3)n2C/C=C/c2ccccc2)n(C)c1=O [7-[(E)-cinnamyl]-8-(2-furfurylamino)-1,3-dimethyl-xanthine]	–	16.9 µM
Cc1cc(C)n(-c2nc(NC(C)C)nc(NC(C)C)n2)n1 [6-(3,5-Dimethyl-pyrazol-1-yl)-N,N'-diisopropyl-[1,3,5]triazine-2,4-diamine]	8.33 µM	–
CCOC(=O)C1C(Cn2cnc3ccccc32)=NC(=O)NC1c1cc(C)ccc1C (stereo unspecified) [ethyl 6-(benzimidazol-1-ylmethyl)-4-(2,5-dimethylphenyl)-2-oxidanylidene-3,4-dihydro-1H-pyrimidine-5-carboxylate]	23.5 µM	–
